Results on 17 compounds are retold here after patent EP0491041A1, “ANTIVIRAL DRUG” (NIPPON SHINYAKU COMPANY, LIMITED, priority 1989, dated 1991).

Converted amounts (≈) assume the structure as drawn.

The experiment deals with virus. As to the kind of experiment: Antiviral action test: screening by inhibition of cell degeneration effect (CPE) in virus-infected HeLa cells. It is filed as cell-based. Conditions: amount of added drug whereby the CPE became 50%, M.O.I = 0.002, culture for three days. On the procedure: HeLa cells were subjected to subcultured by monolayer culture (Eagle's MEM-10% CS) and infected as M.O.I. (multiplicity of infection) = 0.01.
On the first day, HeLa cells were spread in a 75 cm³ flask and cultured on a one-day growth medium (Eagle's MEM-10% CS). On the second day, old medium was removed after confirming the formation of cell sheet, then M.O.I was made 0.01 PFU/cell and 0.5 ml of virus solution was added. The original virus solution was diluted with PBS-3% FCS solution. Operation of the virus inoculation was conducted by tilting for 1 hour at room temperature. After virus was inoculated on the cells, the virus-inoculated solution was removed, washed twice with 10 ml PBS and the residual virus solution was removed. Then 15 ml of maintenance medium (Eagle's MEM-1% CS) was added and cultured at 37°C for 2 days. The cells were observed from time to time and the culture was continued until cell fusion and cell rounding were confirmed. After the culture, medium was recovered which was used as a virus solution and was stored at -20°C until actual use.
The 78 cm³ flask containing HeLa cells which were subjected to a monolayer maintenance subculture was taken out, the old medium was discarded, 2-3 ml of 0.25% trypsine (Difco = 1:250)-0.02% EDTA/PBS(-) solution was added, tilted for a few seconds, the trypsine solution was removed and warmed at 37°C for 5 minutes. Then fresh medium was added, pipetted with a Komagome pipette and the cells were homogeneously dispersed.
Cells were counted using a cytometer, then fresh medium was added, diluted to make the cell concentration 5 x 10⁵ cells/ml, 2 ml of that was added to a laboratory dish of 35 mm diameter and cultured in a CO₂-incubator at 37°C for one day to prepare cell sheet.
The virus solution was diluted by a diluting solution to make diluted solutions of ten-times difference or step. The laboratory dish wherein HeLa cells were cultured on the previous day was taken out from the incubator, old medium was discarded and the cells were washed with each 2 ml of PBS twice. Properly diluted virus solution (0.2 ml) was added to each laboratory dish, subjected to a tilting at room temperature for 60 minutes immediately and virus was inoculated. Then the virus solution was removed, each 2 ml of 0.5% methylcellulose/Eagle's MEM-1% CS was added and cultured in a CO₂ incubator for 4 days.
The cultured laboratory dish was taken out from the CO₂-incubator and methylcellulose medium was removed. Then cells were washed with 2 ml of PDS, 2 ml of methanol was added, allowed to stand for 10 minutes and cells were immobilized and, at the same time, virus was sterilized. Hematoxylin dyeing solution (2 ml) was added to the laboratory dish which was immobilized with methanol, allowed to stand for about 10 minutes, washed with water and air-dried at room temperature. Since the cells destructed with virus were not dyed, plaque area was noted as a void and the plaque numbers were counted whereby virus value (PFU/ml) (Plaque forming units/ml) was measured.
HeLa cells during the subculture were dispersed with trypsine liquid-EDTA solution, 5 x 10⁵ cells/pore were embedded on a plate having 24 pores and cultured overnight at 37°C in a CO₂-incubator to prepare cell sheet.
As mentioned above, old medium was discarded, the cells were washed with PBS, the virus solution was diluted to make M.O.I = 0.002, 0.1 ml of it was added to each pore, subjected to a tilting at room temperature for 60 minutes and virus was inoculated to the cell.
Virus solution was removed from the cells after inoculation of virus, the cells were washed with 2 ml of PBS, each 1 ml of maintenance medium was added to each pore, then each 10 µl of the drug was added and the cells were cultured in a CO₂-incubator. Culture was conducted for three days.
The cells on the plate were observed under an invert microscope. Cell degeneration effect (CPE) was observed as cell fusion and making the cells round. […]
In the case of `COc1ccc(C=CCCCN2C[C@H](O)[C@@H](O)[C@H](O)[C@H]2CO)cc1Cl` [Compound No. 148, N-[5-(3-Chloro-4-methoxyphenyl)-4-pentenyl]moranoline], the “EC50 (50% CPE inhibition)” value turned out to be 30 µg/mL (≈ 80.7 µM).

With `COc1ccc(C(=CCN2C[C@H](O)[C@@H](O)[C@H](O)[C@H]2CO)c2ccccc2)cc1` [Compound No. 105, N-(gamma-Phenyl-4-methoxycinnamyl)moranoline], the “EC50 (50% CPE inhibition)” value amounted to 100 µg/mL (≈ 259 µM). With `CC(=CCCN1C[C@H](O)[C@@H](O)[C@H](O)[C@H]1CO)c1ccccc1C` [Compound No. 109, N-[4-(2-Methylphenyl)-3-pentenyl]moranoline] the figure was 30 µg/mL (≈ 93.3 µM); with `CC(=CCCN1C[C@H](O)[C@@H](O)[C@H](O)[C@H]1CO)c1ccc(F)cc1` [Compound No. 108, N-[4-(4-Fluorophenyl)-3-pentenyl]moranoline], 30 µg/mL (≈ 92.2 µM). Take `Cc1ccc(C=CCCN2CC(O)C(O)C(O)C2CO)cc1F` (centres unmarked) [Compound No. 133, 4-[4-(3-Fluoro-4-methylphenyl)-3-butenyl]moranoline]: the “EC50 (50% CPE inhibition)” value is 30 µg/mL (≈ 92.2 µM). To `CC(=CCCN1C[C@H](O)[C@@H](O)[C@H](O)[C@H]1CO)c1ccccc1Cl` [Compound No. 112, N-[4-(2-Chlorophenyl)-3-pentenyl]moranoline] belongs 30 µg/mL (≈ 87.8 µM); to `CC(=CCN1C[C@H](O)[C@@H](O)[C@H](O)[C@H]1CO)c1ccc(Br)cc1` [Compound No. 101, N-(gamma-Methyl-4-bromocinnamyl)moranoline], 30 µg/mL (≈ 80.6 µM). As to `COc1ccccc1C(C)=CCCN1C[C@H](O)[C@@H](O)[C@H](O)[C@H]1CO` [Compound No. 116, N-[4-(2-Methoxyphenyl)-3-pentenyl]moranoline], the “EC50 (50% CPE inhibition)” value amounted to 30 µg/mL (≈ 88.9 µM). Take `CC(=CCCN1C[C@H](O)[C@@H](O)[C@H](O)[C@H]1CO)c1cc(C(C)C)ccc1C` [Compound No. 119, N-[4-(2-Methyl-5-isopropylphenyl)-3-pentenyl]moranoline]: the “EC50 (50% CPE inhibition)” value came to 3 µg/mL (≈ 8.25 µM).

With `CC(=CCCN1C[C@H](O)[C@@H](O)[C@H](O)[C@H]1CO)c1ccc(Cl)cc1` [Compound No. 110, N-[4-(4-Chlorophenyl)-3-pentenyl]moranoline], the “EC50 (50% CPE inhibition)” value came to 10 µg/mL (≈ 29.3 µM). To `CCOc1ccc(C(C)=CCN2C[C@H](O)[C@@H](O)[C@H](O)[C@H]2CO)cc1` [Compound No. 160, N-[3-(4-Ethoxyphenyl)-2-butenyl]moranoline] belongs 10 µg/mL (≈ 29.6 µM); to `CCOc1cccc(C(C)=CCN2C[C@H](O)[C@@H](O)[C@H](O)[C@H]2CO)c1` [Compound No. 159, N-(gamma-Methyl-3-ethoxycinnamyl)moranoline], 30 µg/mL (≈ 88.9 µM); to `C=C(C)C1CC=C(CN2C[C@H](O)[C@@H](O)[C@H](O)[C@H]2CO)CC1.Cc1ccc(S(=O)(=O)O)cc1` (some centres unmarked) [Compound No. 106, N-[(4-Isopropenyl-1-cyclohexenyl)methyl]moranoline tosylate], 30 µg/mL. Turning to `CC(=CCCN1C[C@H](O)[C@@H](O)[C@H](O)[C@H]1CO)c1ccc(N(C)C)cc1` [Compound No. 114, N-[4-(4-Dimethylaminophenyl)-3-pentenyl]moranoline], the “EC50 (50% CPE inhibition)” value was found to be 30 µg/mL (≈ 85.6 µM). With `CC(=CCCN1C[C@H](O)[C@@H](O)[C@H](O)[C@H]1CO)c1cccc(F)c1` [Compound No. 107, N-[4-(3-Fluorophenyl)-3-pentenyl]moranoline] the figure was 30 µg/mL (≈ 92.2 µM); with `OC[C@@H]1[C@@H](O)[C@H](O)[C@@H](O)C[N+]1(CC=Cc1ccccc1Cl)CC=Cc1ccccc1Cl.[Cl-]` (some centres unmarked) [Compound No. 123, N,N-Bis(2-chlorocinnamyl)moranoline ammonium chloride], 3 µg/mL; with `CC(=CCCN1C[C@H](O)[C@@H](O)[C@H](O)[C@H]1CO)c1cccc(C(F)(F)F)c1` [Compound No. 113, N-[4-(3-Trifluoromethylphenyl)-3-pentenyl]moranoline], 30 µg/mL (≈ 79.9 µM).
